Patent US11517018B2, “Herbicidal composition comprising cinmethylin and saflufenacil” (BASF Agro B.V., priority 2015, dated 2022)
Values joined by “and” are separate entries in the source; they are usually repeats but may differ in a detail not shown here. Equal entries are not always repeated.

Assays:
Type in all cases: in vivo
Conditions in all cases: 20 DAT
Lolium multiflorum [1] = assay: Greenhouse postemergence herbicidal activity, LOLMU
Experimental: (§1) The test plants have been seeded, separately for each species, in plastic containers in sandy loamy soil containing 5% of organic matter.
(§2) For the post emergence treatment, the plants were first grown to the 2 leaf station (GS 12). Here, the herbicidal compositions were suspended or emulsified in water as distribution medium and sprayed using finely distributing nozzels.
(§3) The plants have been cultivated due to their individual requirements at 10-25° C. and 20-35° C. The plants were irrigated due to their necessity.
(§4) In the following experiments, the herbicidal activity for the individual herbicidal compositions (solo and mixture applications) was assessed 20 days after treatment (DAT).
(§5) The evaluation for the damage on undesired weeds caused by the chemical compositions was carried out using a scale from 0 to 100%, compared to the untreated control plants. Here, 0 means no damage and 100 means complete destruction of the plants.
(§6) E=X+Y−(X·Y/100) where • X=effect in percent using herbicide A at an application rate a; • Y=effect in percent using herbicide B at application rate b; • E=expected effect (in %) of herbicide A+herbicide B at application rates a+b.
(§7) The value E corresponds to the effect (plant damage or injury) which is to be expected if the activity of the individual compounds is additive. If the observed effect is higher than the value E calculated according to the Colby equation, a synergistic effect is present.

Polygonum convolvulus = assay: Greenhouse preemergence herbicidal activity, POLCO
Experimental: as §1
(§8) The containers were irrigated gently to promote germination and growth and subsequently covered with transparent plastic hoods until the plants had rooted.
as §3, §4, §5, §6, §7

Sorghum halepense [2] = assay: Greenhouse preemergence herbicidal activity, SORHA
Experimental: as §1, §8, §3, §4, §5, §6, §7

Sorghum halepense [3] = assay: Greenhouse postemergence herbicidal activity, SORHA
Experimental: as §1, §2, §3, §4
The evaluation for the damage on undesired weeds caused by the chemical compositions was carried out using a scale from 0 to 100%, compared to the untreated control plants. Here, 0 means no damage and 100 means complete destruction of the plants. […]
as §7

Papaver rhoeas = assay: Greenhouse preemergence herbicidal activity, PAPRH
Experimental: as §1, §8, §3, §4, §5, §6, §7

Stellaria media [4] = assay: Greenhouse postemergence herbicidal activity, STEME
Experimental: as §1, §2, §3, §4, §5, §6, §7

Avena fatua [5] = assay: Greenhouse postemergence herbicidal activity, AVEFA
Experimental: as §1, §2, §3, §4, §5, §6, §7

Alopecurus myosuroides = assay: Greenhouse preemergence herbicidal activity, ALOMY
Experimental: as §1, §8, §3, §4, §5, §6, §7

Geranium dissectum = assay: Greenhouse preemergence herbicidal activity, GERDI
Experimental: as §1, §8, §3, §4, §5, §6, §7

Digitaria sanguinalis = assay: Greenhouse postemergence herbicidal activity, DIGSA
Experimental: as §1, §2, §3, §4, §5, §6, §7

Galium aparine = assay: Greenhouse preemergence herbicidal activity, GALAP
Experimental: as §1, §8, §3, §4, §5, §6, §7

Avena fatua [6] = assay: Greenhouse preemergence herbicidal activity, AVEFA
Experimental: as §1, §8, §3, §4, §5, §6, §7

Stellaria media [7] = assay: Greenhouse preemergence herbicidal activity, STEME
Experimental: as §1, §8, §3, §4, §5, §6, §7

Abutilon theophrasti = assay: Greenhouse preemergence herbicidal activity, ABUTH
Experimental: as §1, §8, §3, §4, §5, §6, §7

Chenopodium album = assay: Greenhouse preemergence herbicidal activity, CHEAL
Experimental: as §1, §8, §3, §4, §5, §6, §7

Lolium multiflorum [8] = assay: Greenhouse preemergence herbicidal activity, LOLMU
Experimental: as §1, §8, §3, §4, §5, §6, §7

Setaria viridis = assay: Greenhouse preemergence herbicidal activity, SETVI
Experimental: as §1, §8, §3, §4, §5, §6, §7

[9] = saflufenacil solo 0.625 g ai/ha

Measured: herbicidal activity

CC(C)N(C)S(=O)(=O)NC(=O)c1cc(-n2c(=O)cc(C(F)(F)F)n(C)c2=O)c(F)cc1Cl [saflufenacil, N′-{2-chloro-4-fluoro-5-[1,2,3,6-tetrahydro-3-methyl-2,6-dioxo-4-(trifluoromethyl)pyrimidin-1-yl]benzoyl}-N-isopropyl-N-methylsulfamide]
20%: Polygonum convolvulus; saflufenacil solo 3.13 g ai/ha | Geranium dissectum; saflufenacil solo 3.13 g ai/ha | Galium aparine; saflufenacil solo 6.25 g ai/ha | Avena fatua [6]; saflufenacil solo 35 g ai/ha
85%: Papaver rhoeas; saflufenacil solo 4.4 g ai/ha | Stellaria media [4]; [9] | Abutilon theophrasti; saflufenacil solo 8.8 g ai/ha
50%: Lolium multiflorum [1]; saflufenacil solo 5 g ai/ha
10%: Sorghum halepense [2]; saflufenacil solo 12.5 g ai/ha
80%: Geranium dissectum; saflufenacil solo 17.5 g ai/ha
75%: Digitaria sanguinalis; saflufenacil solo 1.25 g ai/ha
98%: Polygonum convolvulus; saflufenacil solo 6.25 g ai/ha | Galium aparine; saflufenacil solo 25 g ai/ha | Abutilon theophrasti; saflufenacil solo 6.25 g ai/ha | Abutilon theophrasti; saflufenacil solo 12.5 g ai/ha
90%: Polygonum convolvulus; saflufenacil solo 8.8 g ai/ha | Papaver rhoeas; saflufenacil solo 6.25 g ai/ha | Stellaria media [7]; saflufenacil solo 4.4 g ai/ha | Chenopodium album; CHEAI, saflufenacil solo 25 g ai/ha | Chenopodium album; CHEAL, saflufenacil solo 25 g ai/ha
60%: Setaria viridis; saflufenacil solo 25 g ai/ha
30%: Sorghum halepense [2]; saflufenacil solo 25 g ai/ha
65%: Sorghum halepense [3]; saflufenacil solo 5 g ai/ha | Abutilon theophrasti; saflufenacil solo 4.4 g ai/ha | Setaria viridis; saflufenacil solo 50 g ai/ha
0%: Lolium multiflorum [1]; [9] | Lolium multiflorum [1]; saflufenacil solo 1.25 g ai/ha | Sorghum halepense [2]; saflufenacil solo 6.25 g ai/ha | Avena fatua [5]; [9] | Avena fatua [5]; saflufenacil solo 1.25 g ai/ha | Avena fatua [5]; saflufenacil solo 5 g ai/ha | Alopecurus myosuroides; saflufenacil solo 4.4 g ai/ha | Alopecurus myosuroides; saflufenacil solo 8.8 g ai/ha | Alopecurus myosuroides; saflufenacil solo 25 g ai/ha | Galium aparine; saflufenacil solo 3.13 g ai/ha | Avena fatua [6]; saflufenacil solo 4.4 g ai/ha | Avena fatua [6]; saflufenacil solo 6.25 g ai/ha | Avena fatua [6]; saflufenacil solo 8.8 g ai/ha | Avena fatua [6]; saflufenacil solo 12.5 g ai/ha | Avena fatua [6]; saflufenacil solo 50 g ai/ha | Lolium multiflorum [8]; saflufenacil solo 3.13 g ai/ha | Lolium multiflorum [8]; saflufenacil solo 12.5 g ai/ha | Setaria viridis; saflufenacil solo 4.4 g ai/ha
95%: Papaver rhoeas; saflufenacil solo 3.13 g ai/ha | Galium aparine; saflufenacil solo 17.5 g ai/ha | Stellaria media [7]; saflufenacil solo 6.25 g ai/ha

Cc1ccccc1CO[C@@H]1C[C@@]2(C(C)C)CC[C@@]1(C)O2 (racemic) [herbicide A, (±)-2-exo-(2-Methylbenzyloxy)-1-methyl-4-isopropyl-7-oxabicyclo[2.2.1]heptane]
85%: Digitaria sanguinalis; herbicide A solo 125 g ai/ha | Chenopodium album; CHEAL, herbicide A solo 500 g ai/ha | Lolium multiflorum [8]; herbicide A solo 125 g ai/ha
70%: Sorghum halepense [3]; herbicide A solo 350 g ai/ha | Avena fatua [5]; herbicide A solo 350 g ai/ha
80%: Geranium dissectum; herbicide A solo 125 g ai/ha | Avena fatua [6]; herbicide A solo 500 g ai/ha
40%: Stellaria media [7]; herbicide A solo 31.25 g ai/ha | Abutilon theophrasti; herbicide A solo 62.5 g ai/ha | Chenopodium album; CHEAI, herbicide A solo 62.5 g ai/ha
98%: Sorghum halepense [2]; herbicide A solo 100 g ai/ha | Sorghum halepense [2]; herbicide A solo 200 g ai/ha | Lolium multiflorum [8]; herbicide A solo 200 g ai/ha | Lolium multiflorum [8]; herbicide A solo 250 g ai/ha | Setaria viridis; herbicide A solo 250 g ai/ha
65%: Papaver rhoeas; herbicide A solo 31.25 g ai/ha | Digitaria sanguinalis; herbicide A solo 87.5 g ai/ha | Galium aparine; herbicide A solo 125 g ai/ha
75%: Lolium multiflorum [1]; herbicide A solo 350 g ai/ha
95% and 98%: Alopecurus myosuroides; herbicide A solo 62.5 g ai/ha
0%: Lolium multiflorum [1]; herbicide A solo 43.8 g ai/ha | Lolium multiflorum [1]; herbicide A solo 62.5 g ai/ha | Lolium multiflorum [1]; herbicide A solo 87.5 g ai/ha | Lolium multiflorum [1]; herbicide A solo 125 g ai/ha | Polygonum convolvulus; herbicide A solo 25 g ai/ha | Polygonum convolvulus; herbicide A solo 50 g ai/ha | Polygonum convolvulus; herbicide A solo 62.5 g ai/ha | Papaver rhoeas; herbicide A solo 25 g ai/ha | Papaver rhoeas; herbicide A solo 50 g ai/ha | Stellaria media [4]; herbicide A solo 43.8 g ai/ha | Galium aparine; herbicide A solo 25 g ai/ha | Galium aparine; herbicide A solo 50 g ai/ha | Avena fatua [6]; herbicide A solo 50 g ai/ha | Abutilon theophrasti; herbicide A solo 50 g ai/ha | Abutilon theophrasti; herbicide A solo 100 g ai/ha
30%: Avena fatua [5]; herbicide A solo 87.5 g ai/ha | Galium aparine; herbicide A solo 200 g ai/ha | Avena fatua [6]; herbicide A solo 31.25 g ai/ha | Lolium multiflorum [8]; herbicide A solo 62.5 g ai/ha
90%: Setaria viridis; herbicide A solo 62.5 g ai/ha
20%: Avena fatua [6]; herbicide A solo 100 g ai/ha | Stellaria media [7]; herbicide A solo 50 g ai/ha
95%: Sorghum halepense [2]; herbicide A solo 50 g ai/ha | Alopecurus myosuroides; herbicide A solo 31.25 g ai/ha | Chenopodium album; CHEAL, herbicide A solo 125 g ai/ha | Lolium multiflorum [8]; herbicide A solo 100 g ai/ha | Lolium multiflorum [8]; herbicide A solo 500 g ai/ha | Setaria viridis; herbicide A solo 31.25 g ai/ha | Setaria viridis; herbicide A solo 125 g ai/ha
35%: Avena fatua [6]; herbicide A solo 125 g ai/ha | Abutilon theophrasti; herbicide A solo 31.25 g ai/ha
25%: Stellaria media [4]; herbicide A solo 62.5 g ai/ha | Avena fatua [5]; herbicide A solo 43.8 g ai/ha
50%: Geranium dissectum; herbicide A solo 25 g ai/ha | Avena fatua [6]; herbicide A solo 200 g ai/ha | Lolium multiflorum [8]; herbicide A solo 25 g ai/ha
60% and 70%: Avena fatua [6]; herbicide A solo 250 g ai/ha
